# Measured values taken from patent US8329737B2, “Benzimidazoles as selective kinase inhibitors” (YM Biosciences Australia PTY Ltd, priority 2004, dated 2012).
# Biological target: T1, Jak2 (Homo sapiens, UniProt O60674)
# T1 construct: The kinase domain of humanJAK2 was amplified from U937mRNA; His tag (from the pFastBac HTc vector; purified on nickel chelate); made in house; host or cells: baculovirus; Sf9 for virus, High Five insect cells for production
# Assay: JAK kinase assay (ELISA or Alphascreen), JAK2 kinase domain
# Format: biochemical
# Conditions: capacity to inhibit 50% of JAK activity at 20 μM, standard conditions
# Experimental: (§1) For screening purposes, compounds were diluted in 96 well plates at a concentration of 20 μM. Plates were warmed at 37° C. for 30 minutes before assay.
# The kinase domain of humanJAK2 was amplified from U937mRNA using the polymerase chain reaction with the following primers: […]
# JAK2 PCR products were cloned into the pFastBac HTc expression vector (Gibco®) via the Sal I and Not I sites. The JAK2 plasmid was then transformed into competent DH10Bac cells (Gibco®), and the recombinant baculovirus produced prepared for transfection into Sf9 insect cells.
# Baculovirus preparations from each of the JAK family members were infected into five litres of High Five cells (Invitrogen) grown in High Five serum free medium (Invitrogen) to a cell density of approximately 1-2×10^6 cells/ml. Cells are infected with virus at a MOI of 0.8-3.0. Cells were harvested and lysed. […]
# Kinase assays were performed in a 96 well capture-based ELISA assay or in 384 well Optiplates (Packard) using an Alphascreen Protein Tyrosine Kinase kit. […] In the ELISA assay tyrosine phosphorylation was quantitated following transfer to an avidin coated ELISA plate using peroxidase-linked anti-phospho-tyrosine antibody PY20. […] The ELISA plates were read on a BMG Fluorostar, the Alphascreen plates were read on a Packard Fusion Alpha. […]
# T1 sequence (O60674 849-1124 limits assumed): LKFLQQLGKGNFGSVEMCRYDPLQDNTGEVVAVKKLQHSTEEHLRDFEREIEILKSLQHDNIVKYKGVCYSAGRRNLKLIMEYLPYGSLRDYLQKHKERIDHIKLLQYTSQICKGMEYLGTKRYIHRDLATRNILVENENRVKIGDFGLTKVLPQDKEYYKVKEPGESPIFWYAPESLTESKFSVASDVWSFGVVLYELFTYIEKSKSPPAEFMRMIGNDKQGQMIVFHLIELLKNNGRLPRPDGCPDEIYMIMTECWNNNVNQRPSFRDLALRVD
row,Compound,Jak2
1,C=CC(=O)Nc1ccc2ncn(-c3cncc(N[C@@H](C)c4ccccc4)n3)c2c1 [N-[1-(6-([(1S)-1-Phenylethyl]amino]pyrazin-2-yl)-1H-benzimidazol-6-yl)acrylamide],"+ (Compounds that exhibited a capacity to inhibit 50% of JAK activity at a concentration of 20 μM (measured under standard conditions, see Methods), are designated as “+”)"

# Biological target: T2, Jak3 (Homo sapiens, UniProt P52333)
# T2 construct: The kinase domain of humanJAK3 was amplified from U937mRNA; His tag (from the pFastBac HTb vector; purified on nickel chelate); made in house; host or cells: baculovirus; Sf9 for virus, High Five insect cells for production
# Assay: JAK kinase assay (ELISA or Alphascreen), JAK3 kinase domain
# Format: biochemical
# Conditions: after 20 minute incubation with enzyme (prior to addition of ATP); read-out: apparent “IC50”
# Experimental: as §1
# The kinase domain of humanJAK3 was amplified from U937mRNA using the polymerase chain reaction with the following primers: […]
# JAK3 PCR products were cloned into the pFastBac HTb expression vector (Gibco®) via the Xho I and Kpn I sites. The JAK3 plasmid was then transformed into competent DH10Bac cells (Gibco®), and the recombinant baculovirus produced prepared for transfection into Sf9 insect cells.
# Baculovirus preparations from each of the JAK family members were infected into five litres of High Five cells (Invitrogen) grown in High Five serum free medium (Invitrogen) to a cell density of approximately 1-2×10^6 cells/ml. Cells are infected with virus at a MOI of 0.8-3.0. Cells were harvested and lysed. JAK kinase domains were purified by affinity chromatography on a Probond (Invitrogen) nickel chelate affinity column.
# Kinase assays were performed in a 96 well capture-based ELISA assay or in 384 well Optiplates (Packard) using an Alphascreen Protein Tyrosine Kinase kit. In either case using approximately 1.5 μg of affinity purified PTK domain in the presence of 50 mM HEPES, pH 7.5, 10 mM MgCl2, 150 mM NaCl and 10 μM-1 mM ATP. The biotinylated substrate biotin-EGPWLEEEEEAYGWMDF-NH2 (SEQ ID NO:9) (final concentration 5 μM) was used as substrate. In the ELISA assay tyrosine phosphorylation was quantitated following transfer to an avidin coated ELISA plate using peroxidase-linked anti-phospho-tyrosine antibody PY20. In the Alphascreen assay, Alphascreen phosphotyrosine acceptor beads followed by streptavidin donor beads were added under subdued light. The ELISA plates were read on a BMG Fluorostar, the Alphascreen plates were read on a Packard Fusion Alpha. […] Inhibitors were added in aqueous DMSO, with DMSO concentrations never exceeding 1%.
# T2 sequence (P52333 822-1111 limits assumed): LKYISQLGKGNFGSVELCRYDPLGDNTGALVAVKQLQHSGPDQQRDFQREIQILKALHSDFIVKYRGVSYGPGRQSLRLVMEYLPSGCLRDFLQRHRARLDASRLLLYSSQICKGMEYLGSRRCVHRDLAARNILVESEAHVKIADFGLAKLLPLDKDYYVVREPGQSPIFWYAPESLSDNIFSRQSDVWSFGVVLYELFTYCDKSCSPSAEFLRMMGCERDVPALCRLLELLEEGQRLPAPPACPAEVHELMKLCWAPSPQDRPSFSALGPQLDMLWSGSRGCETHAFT
row,Compound,IC50 [nM]
1,"C=CC(=O)Nc1ccc2ncn(-c3cncc(NC(C)(C)C)n3)c2c1 [Example 20, N-{1-[6-(tert-Butylamino)pyrazin-2-yl]-1-H-benzimidazol-6-yl}acrylamide]",~40

# Same assay, conditions: after 90 min pre-incubation; read-out: apparent “IC50”
row,Compound,IC50 [nM]
1,"C=CC(=O)Nc1ccc2ncn(-c3cncc(NC(C)(C)C)n3)c2c1 [Example 20, N-{1-[6-(tert-Butylamino)pyrazin-2-yl]-1-H-benzimidazol-6-yl}acrylamide]",7

# Same assay, conditions: capacity to inhibit 50% of JAK activity at 20 μM, standard conditions
Compound,inhibition at 20 µM [%],Jak3
C=CC(=O)Nc1ccc2ncn(-c3cncc(-c4cn[nH]c4)n3)c2c1 [N-{1-[6-(1H-Pyrazol-4-yl)pyrazin-2-yl]-1H-benzimidazol-6-yl}acrylamide],> 50,
C=CC(=O)Nc1ccc2ncn(-c3cncc(-c4cccnc4)n3)c2c1,> 50,
C=CC(=O)Nc1ccc2ncn(-c3cncc(-c4ccccc4)n3)c2c1 [N-[1-(6-Phenylpyrazin-2-yl)-1H-benzimidazol-6-yl]acrylamide],> 50,
C=CC(=O)Nc1ccc2ncn(-c3cncc(N(C)C)n3)c2c1,> 50,
C=CC(=O)Nc1ccc2ncn(-c3cncc(NC)n3)c2c1 [N-{1-[6-(Methylamino)pyrazin-2-yl]-1H-benzimidazol-6-yl}acrylamide],> 50,
C=CC(=O)Nc1ccc2ncn(-c3cncc(NCC4CC4)n3)c2c1,> 50,
C=CC(=O)Nc1ccc2ncn(-c3cncc(-c4ccsc4)n3)c2c1 [N-[1-(6-Thien-3-ylpyrazin-2-yl)-1H-benzimidazol-6-yl]acrylamide],> 50,
C=C(C)C(=O)Nc1ccc2ncn(-c3cncc(NC(C)(C)C)n3)c2c1,> 50,
C=CC(=O)Nc1ccc2ncn(-c3cncc(N(C)C(C)C)n3)c2c1,> 50,
C=CC(=O)Nc1ccc2ncn(-c3cncc(N[C@@H](C)CC)n3)c2c1,> 50,
C=CC(=O)Nc1ccc2ncn(-c3cncc(Cl)n3)c2c1 [N-[1-(6-Chloropyrazin-2-yl)-1H-benzimidazol-6-yl]acrylamide],> 50,
C#CC(=O)Nc1ccc2ncn(-c3cncc(NC(C)(C)C)n3)c2c1,> 50,
C=CC(=O)Nc1ccc2ncn(-c3cncc(Nc4ccccc4)n3)c2c1 [N-[1-(6-Anilinopyrazin-2-yl)-1H-benzimidazol-6-yl]acrylamide],,"+ (Compounds that exhibited a capacity to inhibit 50% of JAK activity at a concentration of 20 μM (measured under standard conditions, see Methods), are designated as “+”)"
C=CC(=O)Nc1ccc2ncn(-c3cncc(-c4ccc(C)o4)n3)c2c1,> 50,
C=CC(=O)Nc1ccc2ncn(-c3cncc(N4CCN(C)CC4)n3)c2c1 [N-{1-[6-(4-Methylpiperazin-1-yl)pyrazin-2-yl]-1H-benzimidazol-6-yl}acrylamide],> 50,
C=CC(=O)Nc1ccc2ncn(-c3cncc(N[C@H](C)CC)n3)c2c1,> 50,
C=CC(=O)Nc1ccc2ncn(-c3cncc(-c4ccncc4)n3)c2c1,> 50,
C=CC(=O)Nc1ccc2ncn(-c3cncc(NC(C)C)n3)c2c1 [N-{1-[6-(Isopropylamino)pyrazin-2-yl]-1H-benzimidazol-6-yl]acrylamide],> 50,
C=CC(=O)Nc1ccc2ncn(-c3cncc(N4CCOCC4)n3)c2c1 [N-[1-(6-morpholin-4-ylpyrazin-2-yl)-1H-benzimidazol-6-yl]acrylamide],> 50,
C=CC(=O)Nc1ccc2ncn(-c3cncc(-c4ccc(F)c(Cl)c4)n3)c2c1 [N-{1-[6-(3-Chloro-4-fluorophenyl)pyrazin-2-yl]-1H-benzimidazol-6-yl}acrylamide],> 50,
C=CC(=O)Nc1ccc2ncn(-c3cncc(N4CCCC4)n3)c2c1,> 50,
C=CC(=O)Nc1ccc2ncn(-c3cncc(NC(C)(C)C)n3)c2c1 [drawing 98],> 50,
C=CC(=O)Nc1ccc2ncn(-c3cncc(N[C@@H](C)c4ccccc4)n3)c2c1 [N-[1-(6-([(1S)-1-Phenylethyl]amino]pyrazin-2-yl)-1H-benzimidazol-6-yl)acrylamide],> 50,
C=CC(=O)Nc1ccc2ncn(-c3cncc(N4CCCCC4)n3)c2c1,> 50,
